In patent US20220125877A1, “METHOD FOR TREATING COLORECTAL CANCER” (SUN YAT-SEN UNIVERSITY, priority 2019, published 2022):

Columns and labels:
[1] = tested on: KRAS (G13D) mutation SW48 cell line; test: Azacitidine treatment: MATE1 expression and anti-proliferation effect of metformin; assay type: cell-based, human; conditions: FIGS. 16E-F
LoVo cells = test: as above; assay type: cell-based, human; conditions: FIGS. 16E-F

Nc1ncn([C@@H]2O[C@H](CO)[C@@H](O)[C@H]2O)c(=O)n1 [azacitidine]
expression of MATE1 [1]: up-regulate the expression of MATE1
effect on the anti-tumor proliferation effect of metformin ([1]; with metformin): inhibiting the anti-tumor proliferation effect of metformin
expression of MATE1 (LoVo cells): up-regulate the expression of MATE1
effect on the anti-tumor proliferation effect of metformin (LoVo cells; with metformin): inhibiting the anti-tumor proliferation effect of metformin
